Results on 29 compounds are retold here after US10471046B2, “Method for treating, preventing, or reducing the risk of skin infection” (Melinta Subsidiary Corp., priority 2014, dated 2019).

In this test the test system is S. aureus. In words: Minimum inhibitory concentrations (MICs) for S. aureus of exemplary compounds (Table 2). The test is classed as cell-based. Conditions: Staphylococcus aureus, minimum inhibitory concentrations for S. aureus; read-out: MICs. Summed up:
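MICs (μg/mL) against S. aureus come from microtiter-tray dilution susceptibility testing per NCCLS M7-A5, comparing growth with and without compound.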

In brackets after ≈: the same amount, converted by molar mass.

For the compound `CC(=O)NC[C@H]1CN(c2ccc(-c3ccc(CNCC4CCOC4)cc3)c(F)c2)C(=O)O1` (stereo partly drawn) [Compound 4219, N-[3-(2-Fluoro-4′-{[(tetrahydro-furan-3-ylmethyl)-amino]-methyl}-biphenyl-4-yl)-2-oxo-oxazolidin-5-(S)-ylmethyl]-acetamide], the MIC amounted to 8 µg/mL (≈ 18.1 µM). Turning to `CC(=O)NC[C@H]1CN(c2ccc(-c3ccc(C(=O)NCc4nccs4)nc3)c(F)c2)C(=O)O1` [Compound 4189, 5-{4-[5-(S)-(Acetylamino-methyl)-2-oxo-oxazolidin-3-yl]-2-fluoro-phenyl}-pyridine-2-carboxylic acid (thiazol-2-ylmethyl)-amide], the MIC was 1 µg/mL (≈ 2.13 µM). Consider `CC(=O)NC[C@H]1CN(c2ccc(-c3ccc(CNCc4cc(C)c(C)o4)cc3)c(F)c2)C(=O)O1` [Compound 4085, N-[3-(4′-{[(4,5-Dimethyl-furan-2-ylmethyl)-amino]-methyl}-2-fluoro-biphenyl-4-yl)-2-oxo-oxazolidin-5-(S)-ylmethyl]-acetamide], for which the MIC came to 4 µg/mL (≈ 8.59 µM).

Turning to `CC(=O)NC[C@H]1CN(c2ccc(-c3ccc(CNCc4ccc(-c5ccccn5)cc4)cc3)c(F)c2)C(=O)O1` [Compound 4017, N-(3-{2-Fluoro-4′-[(4-pyridin-2-yl-benzylamino)-methyl]-biphenyl-4-yl}-2-oxo-oxazolidin-5-(S)-ylmethyl)-acetamide], the MIC was found to be 2 µg/mL (≈ 3.81 µM). With `CC(=O)NC[C@H]1CN(c2ccc(-c3ccc(Cn4nnnc4N)cc3)c(F)c2)C(=O)O1` [Compound 1025, N-{3-[4′-(5-Amino-tetrazol-1-ylmethyl)-2-fluoro-biphenyl-4-yl]-2-oxo-oxazolidin-5-(S)-ylmethyl}-acetamide], the MIC came to 0.5 µg/mL (≈ 1.18 µM). `CC(=O)NC[C@H]1CN(c2ccc(-c3ccc(CN4CCC4)cc3)c(F)c2)C(=O)O1` [Compound 1090, N-[3-(4′-Azetidin-1-ylmethyl-2-fluoro-biphenyl-4-yl)-2-oxo-oxazolidin-5-(S)-ylmethyl]-acetamide]: the MIC amounted to 2 µg/mL (≈ 5.03 µM). In the case of `CC(=O)NC[C@H]1CN(c2ccc(-c3ccc(C(=N)NCc4ccccn4)cc3)c(F)c2)C(=O)O1` [Compound 4097, N-{3-[2-Fluoro-4′-(N-pyridin-2-ylmethyl-carbamimidoyl)-biphenyl-4-yl]-2-oxo-oxazolidin-5-(S)-ylmethyl}-acetamide] it was 16 µg/mL (≈ 34.7 µM); in that of `COc1nc(C)c(/C=C/C(=O)NCc2ccc(-c3ccc(N4C[C@H](CNC(C)=O)OC4=O)cc3F)cc2)c(O)n1` [Compound 4004, N-{4′-[5-(S)-(Acetylamino-methyl)-2-oxo-oxazolidin-3-yl]-2′-fluoro-biphenyl-4-ylmethyl}-3-(4-hydroxy-2-methoxy-6-methyl-pyrimidin-5-yl)-acrylamide], 2 µg/mL (≈ 3.64 µM); in that of `CC(=O)NC[C@H]1CN(c2ccc(-c3ccc(CNCc4ccc(Br)nc4)cc3)c(F)c2)C(=O)O1` [Compound 4181, N-[3-(4′-{[(6-Bromo-pyridin-3-ylmethyl)-amino]-methyl}-2-fluoro-biphenyl-4-yl)-2-oxo-oxazolidin-5-(S)-ylmethyl]-acetamide], 1 µg/mL (≈ 1.9 µM). As for `CC(=O)NC[C@H]1CN(c2ccc(-c3ccc(Cn4nnc(C)n4)cc3)c(F)c2)C(=O)O1` [Compound 1059, N-{3-[2-Fluoro-4′-(5-methyl-tetrazol-2-ylmethyl)-biphenyl-4-yl]-2-oxo-oxazolidin-5-(S)-ylmethyl}-acetamide], the MIC turned out to be 0.5 µg/mL (≈ 1.18 µM).

On to `CC(=O)NC[C@H]1CN(c2ccc(-c3ccc(Cn4cccc4)nc3)c(F)c2)C(=O)O1` [Compound 1071, N-{3-[3-Fluoro-4-(6-pyrrol-1-ylmethyl-pyridin-3-yl)-phenyl]-2-oxo-oxazolidin-5-(S)-ylmethyl}-acetamide], for which the MIC was determined as 0.25 µg/mL (≈ 0.612 µM). Turning to `CC(=O)NC[C@H]1CN(c2ccc(-c3ccc(CNCc4cn(C)c5ccccc45)cc3)c(F)c2)C(=O)O1` [Compound 4218, N-[3-(2-Fluoro-4′-{[(1-methyl-1H-indol-3-ylmethyl)-amino]-methyl}-biphenyl-4-yl)-2-oxo-oxazolidin-5-(S)-ylmethyl]-acetamide], the MIC came to 2 µg/mL (≈ 4 µM).

For the compound `COc1ccc(CN(C)Cc2ccc(-c3ccc(N4C[C@H](CNC(C)=O)OC4=O)cc3F)cc2)cn1` [Compound 4055, N-[3-(2-Fluoro-4′-{[(6-methoxy-pyridin-3-ylmethyl)-methyl-amino]-methyl}-biphenyl-4-yl)-2-oxo-oxazolidin-5-(S)-ylmethyl]-acetamide], the MIC was 2 µg/mL (≈ 4.06 µM).

With `CC(=O)NC[C@H]1CN(c2ccc(-c3ccc(CNC(=O)c4csc(NCc5ccc(Cl)cc5)n4)cc3)c(F)c2)C(=O)O1` [Compound 4207, 2-(4-Chloro-benzylamino)-thiazole-4-carboxylic acid {4′-[5-(S)-(acetylamino-methyl)-2-oxo-oxazolidin-3-yl]-2′-fluoro-biphenyl-4-ylmethyl}-amide], the MIC is 2 µg/mL (≈ 3.29 µM). In the case of `CC(=O)NC[C@H]1CN(c2ccc(-c3ccc(C(CO)NCc4csnn4)cc3)c(F)c2)C(=O)O1` (mixture of isomers) [Compound 4171, N-[3-(2-Fluoro-4′-{2-hydroxy-1-[([1,2,3]thiadiazol-4-(R/S)-ylmethyl)-amino]-ethyl}-biphenyl-4-yl)-2-oxo-oxazolidin-5-(S)-ylmethyl]-acetamide] it was 4 µg/mL (≈ 8.24 µM). In the case of `CC(=O)NC[C@H]1CN(c2ccc(-c3ccc(CNc4ccon4)cc3)c(F)c2)C(=O)O1` [Compound 2050, N-{3-[2-Fluoro-4′-(isoxazol-3-ylaminomethyl)-biphenyl-4-yl]-2-oxo-oxazolidin-5-(S)-ylmethyl}-acetamide] it was 0.25 µg/mL (≈ 0.589 µM); in that of `CSc1ccc(CNCc2ccc(-c3ccc(N4C[C@H](CNC(C)=O)OC4=O)cc3F)cc2)s1` [Compound 4167, N-[3-(2-Fluoro-4′-{[(5-methylsulfanyl-thiophen-2-ylmethyl)-amino]-methyl}-biphenyl-4-yl)-2-oxo-oxazolidin-5-(S)-ylmethyl]-acetamide], 2 µg/mL (≈ 4 µM). The value for `CC(=O)NC[C@H]1CN(c2ccc(-c3ccc([C@@H](O)CNCc4cocn4)cc3)c(F)c2)C(=O)O1` [Compound 4199, N-[3-(2-Fluoro-4′-{1-(R)-hydroxy-2-[(oxazol-4-ylmethyl)-amino]-ethyl}-biphenyl-4-yl)-2-oxo-oxazolidin-5-(S)-ylmethyl]-acetamide] was 4 µg/mL (≈ 8.54 µM). With `CC(=O)NC[C@H]1CN(c2ccc(-c3ccc(CNCc4n[nH]c(=O)[nH]4)cc3)c(F)c2)C(=O)O1` [Compound 4178, N-[3-(2-Fluoro-4′-{[(5-(S)-oxo-4,5-dihydro-1H-[1,2,4]triazol-3-ylmethyl)-amino]-methyl}-biphenyl-4-yl)-2-oxo-oxazolidin-5-(S)-ylmethyl]-acetamide], the MIC is 8 µg/mL (≈ 17.6 µM).

For `CC(=O)NC[C@H]1CN(c2ccc(-c3ccc(CNCc4cnnn4C)cc3)c(F)c2)C(=O)O1` [Compound 4272, N-[3-(2-Fluoro-4′-{[(3-methyl-3H-[1,2,3]triazol-4-ylmethyl)-amino]-methyl}-biphenyl-4-yl)-2-oxo-oxazolidin-5-(S)-ylmethyl]-acetamide], the MIC stood at 0.25 µg/mL (≈ 0.552 µM).

In the case of `CC(=O)NC[C@H]1CN(c2ccc(-c3ccc(CNCc4ccc(CO)o4)cc3)c(F)c2)C(=O)O1` [Compound 4075, N-[3-(2-Fluoro-4′-{[(5-hydroxymethyl-furan-2-ylmethyl)-amino]-methyl}-biphenyl-4-yl)-2-oxo-oxazolidin-5-(S)-ylmethyl]-acetamide], the MIC came out at 2 µg/mL (≈ 4.28 µM). With `CC(=O)NC[C@H]1CN(c2ccc(-c3ccc(CNCc4cccn4C)cc3)c(F)c2)C(=O)O1` [Compound 4059, N-[3-(2-Fluoro-4′-{[(1-methyl-1H-pyrrol-2-ylmethyl)-amino]-methyl}-biphenyl-4-yl)-2-oxo-oxazolidin-5-(S)-ylmethyl]-acetamide], the MIC worked out at 2 µg/mL (≈ 4.44 µM). The value for `CC(=O)NC[C@H]1CN(c2ccc(-c3ccc(CNN4CCN(C)CC4)cc3)c(F)c2)C(=O)O1` [Compound 2057, N-(3-{2-Fluoro-4′-[(4-methyl-piperazin-1-ylamino)-methyl]-biphenyl-4-yl}-2-oxo-oxazolidin-5-(S)-ylmethyl)-acetamide] was 1 µg/mL (≈ 2.2 µM); that for `COc1ncccc1CNCc1ccc(-c2ccc(N3C[C@H](CNC(C)=O)OC3=O)cc2F)cc1` [Compound 4151, N-[3-(2-Fluoro-4′-{[(2-methoxy-pyridin-3-ylmethyl)-amino]-methyl}-biphenyl-4-yl)-2-oxo-oxazolidin-5-(S)-ylmethyl]-acetamide] was 2 µg/mL (≈ 4.18 µM). With `CC(=O)NC[C@H]1CN(c2ccc(-c3ccc(CNCc4cccnc4N)cc3)c(F)c2)C(=O)O1` [Compound 4152, N-[3-(4′-{[(2-Amino-pyridin-3-ylmethyl)-amino]-methyl}-2-fluoro-biphenyl-4-yl)-2-oxo-oxazolidin-5-(S)-ylmethyl]-acetamide], the MIC was determined as 2 µg/mL (≈ 4.31 µM).

Regarding `CC(=O)NC[C@H]1CN(c2ccc(-c3ccc(CNc4nc(CNC(=O)[C@@H](N)CCCCN)ns4)cc3)c(F)c2)C(=O)O1` [Compound 2014, 2,6-Diamino-hexanoic acid [5-({4′-[5-(acetylamino-methyl)-2-oxo-oxazolidin-3-yl]-2′-fluoro-biphenyl-4-ylmethyl}-amino)-[1,2,4]thiadiazol-3-ylmethyl]-amide], the MIC was determined as 2 µg/mL (≈ 3.34 µM). Take `CC(=O)NC[C@H]1CN(c2ccc(-c3ccc(COCc4cc[n+]([O-])cc4)cc3)c(F)c2)C(=O)O1` [Compound 4198, N-{3-[2-Fluoro-4′-(1-oxy-pyridin-4-ylmethoxymethyl)-biphenyl-4-yl]-2-oxo-oxazolidin-5-(S)-ylmethyl}-acetamide]: the MIC turned out to be 2 µg/mL (≈ 4.3 µM).

As to `CC(=O)NC[C@H]1CN(c2ccc(-c3ccc(CNCC4CCC=CO4)cc3)c(F)c2)C(=O)O1` (stereo partly drawn) [Compound 4131, N-[3-(4′-{[(3,4-Dihydro-2H-pyran-2-ylmethyl)-amino]-methyl}-2-fluoro-biphenyl-4-yl)-2-oxo-oxazolidin-5-(S)-ylmethyl]-acetamide], the MIC was found to be 1 µg/mL (≈ 2.21 µM). Regarding `CC(=O)NC[C@H]1CN(c2ccc(-c3ccc(C(C)NC(C)c4ccncc4)cc3)c(F)c2)C(=O)O1` (mixture of isomers) [Compound 4160, N-(3-{2-Fluoro-4′-[1-(R/S)-(1-pyridin-4-(R/S)-yl-ethylamino)-ethyl]-biphenyl-4-yl}-2-oxo-oxazolidin-5-(S)-ylmethyl)-acetamide], the MIC came to 8 µg/mL (≈ 16.8 µM).
